The experiment has as its target T1, recombinant human Syk (GST-hSyk fusion protein) (Homo sapiens, UniProt P43405).
T1 construct: purchased Carna Biosciences 08-176
Kind of experiment: Homogeneous Time-Resolved Fluorescence (HTRF) assay for the recombinant human Syk enzyme. The experiment is classed as biochemical. The following applies: IC50 class; 10-dose titration, 25 μM ATP; read-out: rhSYK Activity. Put shortly:
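GST-hSyk (5 pM) preincubated 10 min with compound (0.1% DMSO) in 15 mM Tris-HCl pH 7.5, 2 mM DTT; reaction started with 250 nM biotinylated peptide, 5 mM Mg, 25 μM ATP, 45 min, room temperature. EDTA quench, Eu-anti-phosphotyrosine/SA-APC HTRF read after 30 min; IC50 from 10-dose titration (10 μM–0.508 nM), four-parameter fit.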

Some results are limits rather than exact numbers.

On to `COC(=O)C(C)n1cc(-c2cc(C)cc(Nc3nccc(C(F)(F)F)n3)c2)cn1` (stereo not shown) [Example 3.29, methyl 2-[4-[3-methyl-5-{[4-(trifluoromethyl)-pyrimidin-2-yl]amino}-phenyl)-1H-pyrazol-1-yl]propanoate], for which the IC50 was ≤ 100 nM.
In the case of `CCOC(=O)C(C)n1cc(-c2cc(C)cc(Nc3nccc(C(F)(F)F)n3)c2)cn1` (stereo not shown) [Example 3.30, ethyl 2-[4-(3-methyl-5-{[4-(trifluoromethyl)-pyrimidin-2-yl]amino}phenyl)-1H-pyrazol-1-yl]propanoate] it was ≤ 100 nM.
To `Cc1cc(Nc2nccc(C(F)(F)F)n2)cc(-c2cnn(CCCO)c2)c1` [Example 3.31, 3-[4-(3-methyl-5-{[4-(trifluoromethyl)pyrimidin-2-yl]amino}-phenyl)-1H-pyrazol-1-yl]propan-1-ol] belongs ≤ 100 nM; to `Cc1cc(Nc2nccc(C(F)(F)F)n2)cc(-c2cnn(Cc3ccnnc3)c2)c1` [Example 3.32, N-{3-methyl-5-[1-(pyridazin-4-ylmethyl)-1H-pyrazol-4-yl]phenyl}-4-(trifluoromethyl)pyrimidin-2-amine], ≤ 100 nM.
In the case of `Cc1cc(Nc2nccc(C(F)(F)F)n2)cc(-c2cnn(CC3CNC(=O)O3)c2)c1` (stereo not shown) [Example 3.33, 5-{[4-(3-methyl-5-{[4-(trifluoromethyl)pyrimidin-2-yl]amino}-phenyl)-1H-pyrazol-1-yl]methyl}-1,3-oxazolidin-2-one] it was ≤ 100 nM.
`CCC(C(=O)O)n1cc(-c2cc(C)cc(Nc3nccc(C(F)(F)F)n3)c2)cn1` (stereo not shown) [Example 3.34, 2-[4-(3-methyl-5-{[4-(trifluoromethyl)pyrimidin-2-yl]amino}-phenyl)-1H-pyrazol-1-yl]butanoic acid]: the IC50 is ≤ 100 nM.
To `Cc1cc(Nc2nccc(C(F)(F)F)n2)cc(-c2cnn(C(C)C(=O)O)c2)c1` (stereo not shown) [Example 3.35, 2-[4-(3-methyl-5-{[4-(trifluoromethyl)pyrimidin-2-yl]amino}-phenyl)-1H-pyrazol-1-yl]propanoic acid] belongs ≤ 100 nM; to `Cc1cc(Nc2nccc(C(F)(F)F)n2)cc(-c2cnn(CCO)c2)c1` [Example 3.36, 2-[4-(3-methyl-5-{[4-(trifluoromethyl)-pyrimidin-2-yl]amino}-phenyl)-1H-pyrazol-1-yl]ethanol], ≤ 100 nM; to `Cc1cc(Nc2nccc(C(F)(F)F)n2)cc(-c2cnn(CC(N)=O)c2)c1` [Example 3.37, 2-[4-(3-methyl-5-{[4-(trifluoromethyl)pyrimidin-2-yl]amino}-phenyl)-1H-pyrazol-1-yl]acetamide], ≤ 100 nM.
To `Cc1cc(Nc2nccc(OCCO)n2)cc(-c2cnn(CCC(N)=O)c2)c1` [Example 3.38, 3-[4-(3-{[4-(2-hydroxyethoxy)pyrimidin-2-yl]amino}-5-methylphenyl)-1H-pyrazol-1-yl]propanamide] belongs ≤ 100 nM; to `Cc1cc(Nc2nccc(C(F)(F)F)n2)cc(-c2cnn(CS(N)(=O)=O)c2)c1` [Example 3.39, 1-[4-(3-methyl-5-{[4-(trifluoromethyl)pyrimidin-2-yl]amino}-phenyl)-1H-pyrazol-1-yl]methane-sulfonamide], ≤ 100 nM; to `COc1ccnc(Nc2cc(C)cc(-c3cnn(CCC(N)=O)c3)c2)n1` [Example 3.40, 3-(4-{3-[(4-methoxypyrimidin-2-yl)amino]-5-methylphenyl}-1H-pyrazol-1-yl)propanamide], ≤ 100 nM.
As for `Cc1cc(Nc2nccc(C(F)(F)F)n2)cc(-c2cnn(C[C@@H](O)CO)c2)c1` [Example 3.41, (2R)-3-[4-(3-methyl-5-{[4-(trifluoromethyl)pyrimidin-2-yl]amino}-phenyl)-1H-pyrazol-1-yl]propane-1,2-diol], the IC50 is ≤ 100 nM.
To `Cc1cc(Nc2nccc(C(F)(F)F)n2)cc(-c2cnn(C[C@H](O)CO)c2)c1` [Example 3.42, (2S)-3-[4-(3-methyl-5-{[4-(trifluoromethyl)pyrimidin-2-yl]amino}phenyl)-1H-pyrazol-1-yl]propane-1,2-diol] belongs ≤ 100 nM; to `Cc1cc(Nc2nccc(C(F)(F)F)n2)cc(-c2cnn(CC3CN(C)C(=O)O3)c2)c1` (stereo not shown) [Example 3.46], ≤ 100 nM; to `Cc1cc(Nc2nccc(C(F)(F)F)n2)cc(-c2cnn(C[C@@H](O)CC#N)c2)c1` [Example 3.47, (3S)-3-hydroxy-4-[4-(3-methyl-5-{[4-(trifluoromethyl)pyrimidin-2-yl]amino}-phenyl)-1H-pyrazol-1-yl]butanenitrile], ≤ 100 nM.
In the case of `Cc1cc(Nc2nccc(C(F)(F)F)n2)cc(-c2cnn(CCS(C)(=O)=O)c2)c1` [Example 3.48, N-(3-methyl-5-{1-[2-(methylsulfonyl)ethyl]-1H-pyrazol-4-yl}phenyl)-4-(trifluoromethyl)pyrimidin-2-amine] it was ≤ 100 nM; in that of `COC(=O)CCCn1cc(-c2cc(C)cc(Nc3nccc(C(F)(F)F)n3)c2)cn1` [Example 3.49, methyl 4-[4-(3-methyl-5-{[4-(trifluoromethyl)-pyrimidin-2-yl]amino}-phenyl)-1H-pyrazol-1-yl]butanoate], ≤ 100 nM.
To `Cc1cc(Nc2nccc(C(F)(F)F)n2)cc(-c2cnn(CCCC(=O)O)c2)c1` [Example 3.50, 4-[4-(3-methyl-5-{[4-(trifluoromethyl)-pyrimidin-2-yl]amino}-phenyl)-1H-pyrazol-1-yl]butanoic acid] belongs ≤ 100 nM; to `Cc1cc(Nc2nccc(C(F)(F)F)n2)cc(-c2cnn(C3CCC(C(=O)O)c4ccccc43)c2)c1` (stereo not shown) [Example 3.51, 4-[4-(3-methyl-5-{[4-(trifluoromethyl)pyrimidin-2-yl]amino}phenyl)-1H-pyrazol-1-yl]-1,2,3,4-tetrahydronaphthalene-1-carboxylic acid], ≤ 100 nM; to `COC(=O)C1CCC(n2cc(-c3cc(C)cc(Nc4nccc(C(F)(F)F)n4)c3)cn2)c2ccccc21` (stereo not shown) [Example 3.52, methyl 4-[4-(3-methyl-5-{[4-(trifluoromethyl)pyrimidin-2-yl]amino}-phenyl)-1H-pyrazol-1-yl]-1,2,3,4-tetrahydronaphthalene-1-carboxylate], 100 to 1000 nM.
With `Cc1cc(Nc2nccc(C(F)(F)F)n2)cc(-c2cnn(CC(O)c3ccc(C(=O)O)cc3)c2)c1` (stereo not shown) [Example 3.53, 4-{1-hydroxy-2-[4-(3-methyl-5-{[4-(trifluoromethyl)pyrimidin-2-yl]amino}-phenyl)-1H-pyrazol-1-yl]ethyl}benzoic acid], the IC50 is ≤ 100 nM.
To `COC(=O)c1ccc(C(O)Cn2cc(-c3cc(C)cc(Nc4nccc(C(F)(F)F)n4)c3)cn2)cc1` (stereo not shown) [Example 3.54, methyl 4-{1-hydroxy-2-[4-(3-methyl-5-{[4-(trifluoromethyl)pyrimidin-2-yl]amino}phenyl)-1H-pyrazol-1-yl]ethyl}benzoate] belongs ≤ 100 nM; to `Cc1cc(Nc2cc(C(F)F)ccn2)nc(-c2cnn(CC3CNC(=O)O3)c2)c1` (stereo not shown) [Example 3.81, 5-{[4-(6-{[4-(difluoromethyl)pyridin-2-yl]amino}-4-methylpyridin-2-yl)-1H-pyrazol-1-yl]methyl}-1,3-oxazolidin-2-one], ≤ 100 nM.
In the case of `O=C1NCC(Cn2cc(-c3cccc(Nc4cc(C(F)F)ccn4)n3)cn2)O1` (stereo not shown) [Example 3.82, 5-{[4-(6-{[4-(difluoromethyl)pyridin-2-yl]amino}pyridin-2-yl)-1H-pyrazol-1-yl]methyl}-1,3-oxazolidin-2-one] it was ≤ 100 nM.

Values taken from US9242984B2, “Pyrazolyl derivatives as Syk inhibitors” (Merck Sharp & Dohme Corp., priority 2012, dated 2016).
